Key:
Test in all cases: Test A post-emergence
Parameters in all cases: key: 0 = no effect, 10 = maximum effect; letter = response symbol
Conditions in all cases: 0.4 kg/ha
cotton = format: in vivo
Method in brief: (§1)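 Seeds and tubers were treated preemergence in a growth medium with compound in a nonphytotoxic solvent, against untreated controls; emerged plants such as two-leaf barnyardgrass and five-leaf cotton were sprayed postemergence, against solvent-sprayed controls. After sixteen days in a greenhouse, response was rated visually from 0 to 10.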

wheat = format: in vivo
Method in brief: as §1

corn = format: in vivo
Method in brief: as §1

sorghum = format: in vivo
Method in brief: as §1

soybean = format: in vivo
Method in brief: as §1

barnyardgrass = format: in vivo, Echinochloa crusgalli
Source text: (§2) The activity of these compounds was discovered in a number of greenhouse and field tests. The ratings are based on a numerical scale extending from 0=no effect, to 10=maximum effect. The accompanying descriptive symbols have the following meanings:
(§3) Seeds of crabgrass (Digitaria spp.), barnyardgrass (Echinochloa crusgalli), wild oats (Avena fatua), cassia (Cassia tora), morningglory (Ipomoea spp.), cocklebur (Xanthium spp.), sorghum, corn, soybean, rice, wheat and nutsedge tubers (Cyperus rotundus) were planted in a growth medium and treated preemergence with a nonphytotoxic solvent solution of the compounds of Table XII. Other batches of seeds and tubers for all of the foregoing weed and crop plants were planted at the same time as controls. The control plantings were untreated; i.e., neither any compound nor any solvent was applied. At the same time, cotton having five leaves (including cotyledonary ones), bush beans with the third trifoliate leaf expanding, crabgrass with two leaves, barnyardgrass with two leaves, wild oats with two leaves, cassia with three leaves (including cotyledonary ones), morningglory with four leaves (including the cotyledonary ones), cocklebur with four leaves (including the cotyledonary ones), sorghum with four leaves, corn with four leaves, soybean with two cotyledonary leaves, rice with three leaves, wheat with one leaf, and nutsedge with three-five leaves were sprayed with a nonphytotoxic solvent solution of the compounds of Table XII. Other groups of all the same weed and crop plants were sprayed with the same nonphytotoxic solvent so as to provide control plants. Preemergence and postemergence treated plants and controls were maintained in a greenhouse for sixteen days, then all treated plants were compared with their respective controls and rated visually for response to treatment.

cassia = format: in vivo, Cassia tora
Method in brief: as §1

bush bean = format: in vivo, bush beans
wild oats = format: in vivo, Avena fatua
Method in brief: as §1

nutsedge = format: in vivo, Cyperus rotundus
Method in brief: as §1

morningglory = format: in vivo, Ipomoea spp.
Method in brief: as §1

cocklebur = format: in vivo, Xanthium spp.
Method in brief: as §1

rice = format: in vivo
Method in brief: as §1

crabgrass = format: in vivo, Digitaria spp.
Source text: as §2, §3

Compound | response rating (cotton) [C] | response rating (wheat) | response rating (corn) | response rating (sorghum) | response rating (soybean) [C] | response rating (barnyardgrass) [C] | response rating (cassia) | response rating (bush bean) [C] | response rating (wild oats) | response rating (nutsedge) | response rating (morningglory) | response rating (cocklebur) [C] | response rating (rice) | response rating (crabgrass)
COC(=O)c1ccccc1S(=O)(=O)NC(=O)Nc1nc(C)cc(OC)n1 [drawing 413] | 9 | 9C | 10C | 9C | 9 | 9 | 9C | 9 | 9C | 9C | 10C | 9 |  | 
COc1cc(OC)nc(NC(=O)NS(=O)(=O)c2ccccc2C(=O)OCCCl)n1 [drawing 420] | 9 |  |  | 10C | 10 | 10 | 9C | 9 |  | 9C | 10C | 10 |  | 
COc1cc(C)nc(NC(=O)NS(=O)(=O)c2ccccc2C(=O)OCCCl)n1 [drawing 421] | 9 |  | 10C | 9C |  | 10 | 10C | 9 |  | 10C | 10C | 10 |  | 
COc1nc(C)nc(NC(=O)NS(=O)(=O)c2ccccc2C(=O)OC(C)C)n1 [drawing 425] | 9 | 2C | 10C |  |  |  | 10C | 9 |  | 10C | 10C | 10 |  | 
COc1nc(C)nc(NC(=O)NS(=O)(=O)c2ccccc2C(=O)OCCCl)n1 [drawing 426] | 9 | 1C | 9C |  |  |  | 9C | 9 | 4G | 9C | 10C | 10 |  | 
COc1nc(NC(=O)NS(=O)(=O)c2ccccc2C(=O)OC2CCCCC2)nc(OC)n1 [drawing 432] |  | 0 | 6H | 3G |  |  | 5C |  | 0 | 2G |  |  | 2G | 0
COC(=O)c1cc(Cl)ccc1S(=O)(=O)NC(=O)Nc1nc(C)cc(OC)n1 [drawing 434] |  |  | 9H |  |  |  | 9C |  |  |  | 10C | 10 | 9C | 3G
COC(=O)c1cc(F)ccc1S(=O)(=O)NC(=O)Nc1nc(C)nc(OC)n1 [drawing 450] |  | 0 | 9C |  |  |  | 9C | 9 | 0 |  | 9C |  | 9C | 9C
CCOCCOC(=O)c1ccccc1S(=O)(=O)NC(=O)Nc1nc(Cl)cc(Cl)n1 [drawing 453] | 1 | 2G |  |  |  |  | 0 |  | 1C | 0 | 0 | 5 |  | 2C
C=CCCC(C)OC(=O)c1ccccc1S(=O)(=O)NC(=O)Nc1nc(C)nc(OC)n1 (stereo not shown) [drawing 455] | 9 |  | 9C |  | 9 |  | 9C | 9 |  | 7G | 10C | 10 |  | 9C
COc1nc(C)nc(NC(=O)NS(=O)(=O)c2ccccc2C(=O)OC2CCCCCCC2)n1 [drawing 456] | 9 | 2G | 9C |  |  |  | 9C | 9 | 4G | 4G | 10C | 9 |  | 
COc1cc(C)nc(NC(=O)NS(=O)(=O)c2ccccc2C(=O)OCCOc2ccccc2)n1 [drawing 461] | 9 |  |  | 8G | 9 | 9 |  | 9 |  | 8G | 9C | 10 |  | 4G
COc1cc(C)nc(NC(=O)NS(=O)(=O)c2ccccc2C(=O)NCc2ccccc2)n1 [drawing 464] | 9 | 9C | 10C | 9C | 9 | 9 |  | 9 | 9C |  | 10C | 9 |  | 
CNC(=O)c1ccccc1S(=O)(=O)NC(=O)Nc1nc(C)cc(OC)n1 [drawing 466] | 10 | 9C | 10C | 10C | 9 | 9 | 9C | 9 | 9C | 10C | 10C | 9 |  | 9C
CCOCCSc1cc(C)nc(NC(=O)NS(=O)(=O)c2ccccc2C(=O)OC)n1 [drawing 469] |  | 6G | 9H | 9G |  |  |  | 9 |  | 8G |  | 2 | 8G | 
CCCCCCOC(=O)c1ccccc1S(=O)(=O)NC(=O)Nc1nc(C)cc(COC)n1 [drawing 471] | 2 | 0 |  |  | 2 | 3 | 1C |  | 0 |  | 2C |  |  | 0
COC(=O)c1ccccc1S(=O)(=O)NC(=O)Nc1nc(OC)nc(OCC(F)(F)F)n1 [drawing 473] | 9 |  | 10C |  |  |  | 10C | 9 |  |  | 10C | 10 |  | 3G
COCCc1nc(NC(=O)NS(=O)(=O)c2ccccc2C(=O)OC)nc(OC)n1 [drawing 474] | 9 | 1C | 9C |  | 9 |  |  | 9 |  |  | 10C |  |  | 9C
COc1cc(C)nc(NC(=O)NS(=O)(=O)c2ccccc2C(=O)SCc2ccccc2)n1 [drawing 475] | 9 |  | 9C |  | 8 | 9 | 9C | 9 |  |  | 10C | 9 |  | 
COc1cc(C)nc(NC(=O)NS(=O)(=O)c2ccccc2C(=O)SC)n1 [drawing 477] | 9 |  | 9C | 9C | 9 | 9 | 9C | 9 |  |  | 9C | 9 |  | 
COc1cc(C)nc(NC(=O)NS(=O)(=O)c2ccccc2C(=O)OC(C)CCl)n1 (stereo not shown) [drawing 478] | 9 | 8C | 9C | 9C |  | 10 | 10C |  | 8C | 9C | 10C | 9 |  | 9C

From patent publication US4383113A, “Agricultural sulfonamides” (E. I. Du Pont de Nemours and Company, priority 1981, dated 1983)
